Experiments:
[1] = in vitro Ca2+ titration of the esterase hydrolysate of Compound 14 in Ca2+ buffer (spectrofluorophotometer); type: binding; conditions: hydrolysate obtained by esterase treatment; buffer with adjusted Ca2+ concentration (100 mM KCl, 30 mM MOPS)
Protocol: A 100 μL PBS solution containing Compound 14 (final concentration 80 μM), Pluronic F127 (0.2%), and Esterase Pseudomonas fluorescens (0.42 units/μL) (SIGMA) was prepared and hydrolysis reaction was carried out at 37° C. To follow the time course of the reaction, a part of the sample was taken during the reaction and the fluorescence intensity in 10 mM Ca^2+ buffer was measured with a spectrofluorophotometer (JASCO, FP-6500). When the fluorescence intensity ceased to change almost completely, the reaction was stopped to obtain a hydrolysate of Compound 14.
A free Ca^2+ concentration in a buffer containing 100 mM KCl and 30 mM 3-morpholinopropanesulfonic acid (MOPS) was adjusted using a Ca-ethylene glycol tetraacetic acid (EGTA) system (0-1 μM), a Ca-nitrilotriacetic acid (NTA) system (3.2 μM-794.3 μM), an unbuffered system (CaCl2) (3.2 mM-10 mM). The adjustment of free Ca^2+ concentration in the Ca-EGTA system or in the Ca-NTA system was carried out using the following formula (1). […]
In order to evaluate the chemical characteristics of the synthesized Compound 14, a hydrolysate was obtained by esterase treatment according to the above method, and the fluorescence intensity in a buffer in which the Ca^2+ concentration was adjusted was measured with a spectrofluorophotometer.

HEK 293T/Halo-RimZF-CAAX [2] = test: staining / localization in HEK 293T cells expressing HaloTag protein on the cell membrane; type: cell-based; conditions: 5 μM probe, Ringer's solution, 30 minutes, room temperature
Protocol: (§1) HEK 293T cells (GenHunter) were cultured in Dulbecco's Modified Eagle's Medium (DMEM) (Wako) containing 10% FBS, 4 mM L-glutamine (Wako), and 1 mM sodium pyruvate (Wako) at 37° C. in an atmosphere of 5% CO2. For nerve cells, a fetus was removed from Sprague-Dawley rat on day 21 of pregnancy under anesthesia, and the hippocampus immediately extracted from the fetal brain was digested with trypsin (Invitrogen) and DNase I (Sigma) to separate nerve cells. The nerve cells were cultured on a monolayer of glial cells in a Neurobasal A medium (Invitrogen) containing 2% B-27 supplement (Invitrogen), 1 mM sodium pyruvate (Wako), 1% glutamax (Invitrogen), 1% penicillin-streptomycin mixed solution (nacalai tesque) at 37° C. in an atmosphere of 5% CO2.
Next, a DNA fragment encoding HaloTag and a DNA fragment encoding RimZF were fused by PCR. At this time, a DNA fragment expressing a fusion protein of HaloTag, RimZF, and CAAX motif was obtained by adding a DNA sequence encoding a CAAX motif of the KRas gene (KMSKDGKKKKKKSKTKC-VIM) to the primer. […]
(§2) Fluorescence images were acquired using an inverted microscope (IX-71, Olympus), an EM-CCD camera (Andor, iXon), an objective lens ([…]), and a filter set for RFP. […]

[3] = in situ calibration of the labeled probe in fixed, permeabilized HEK 293T/Halo-RimZF-CAAX; type: cell-based; conditions: probe labeled on HEK 293T/Halo-RimZF-CAAX, 4% PFA fixed, 20 μM digitonin
Protocol: (§3) HEK 293T cells were seeded in metal rings on a cover glass coated with 0.01% collagen and 25 μg/ml poly-L-lysine (nacalai tesque) 16 hours after gene transfer so that the number of cells per ring was 40,000 and cultured at 37° C. and a carbon dioxide concentration of 5%. Three and a half hours later, the extracellular fluid was replaced with Ringer's solution (5 mM HEPES, 150 mM NaCl, 4 mM KCl, 2 mM CaCl2, 1 mM MgCl2, 0.1% glucose, pH 7.2) containing a Ca^2+ probe (compound 14 or Calcium Green, AM (Invitrogen)) or a fluorescent ligand (halo TMR, halo Oregon) (final concentration 5 μM) and 0.02% Plulonic F127 and left to stand at room temperature for 30 minutes while being shielded from light. The cells labeled with compound 14 and the fluorescent ligand was then exchanged with serum-free DMEM, removal of probes that were liberated at 5% carbon dioxide concentration and 37° C. was carried out for 30 minutes, and the extracellular solution was exchanged again with Ringer's solution. […]
The labeled HEK 293T/Halo-RimZF-CAAX was immobilized with 4% PFA/PBS for 10 minutes, subjected to membrane permeabilization with 20 μM digitonin, and a change in fluorescence when the Ca^2+ concentration of the extracellular solution was changed was measured.
Next, Ca^2+ response characteristics of the labeled probe were evaluated by in situ calibration.

HEK 293T/Halo-RimZF-CAAX [4] = test: Ca2+ imaging on ionomycin stimulation of probe-labeled HEK 293T/Halo-RimZF-CAAX; type: cell-based; conditions: ionomycin (10 μM); local Ca2+ signal on the cell membrane
Protocol: as §3, with “light.” for “light. The cells labeled with compound 14 and the fluorescent ligand was then exchanged with serum-free DMEM, removal of probes that were liberated at 5% carbon dioxide concentration and 37° C. was carried out for 30 minutes, and the extracellular solution was exchanged again with Ringer's solution.”
as §2
In addition, ionomycin was added to a probe-labeled HEK 293T/Halo-RimZF-CAAX in order to see the response characteristics to the Ca^2+ signal induced by the ionophore, and then changes with time of the fluorescence intensity were measured (FIG. 5). […]

[5] = system: Rat hippocampus-derived nerve cells; test: Ca2+ imaging on electrical stimulation of probe-labeled hippocampus-derived nerve cells; type: cell-based; conditions: electrical stimulation 10 times at 100 Hz; HaloTag fusion protein expressed in nerve cells
Protocol: as §1
A DNA fragment obtained by fusing a sequence encoding a HaloTag protein in series on the C-terminal side of the DNA sequence encoding the vesicular membrane […] transporter (VGLUT1) was subcloned into a lentiviral vector (pLenti6PW) to prepare pLenti vglut1-chalo. […]
as §2

Structure (SMILES): CC(=O)OCOC(=O)COc1cc(NC(=O)c2ccc3c(c2)C(=O)OC32c3cc(Cl)c(OC(C)=O)cc3Oc3cc(N4CC(C(=O)NCCOCCOCCCCCCCl)C4)c(Cl)cc32)ccc1N(CC(=O)OCOC(C)=O)CC(=O)OCOC(C)=O (centres unmarked) [Compound 14, bis(acetoxymethyl) 2,2′-((4-(3′-acetoxy-2′,7′-dichloro-6′-(3-((2-(2-((6-chlorohexyl)oxy)ethoxy)ethyl)carbamoyl)azetidin-1-yl)-3-oxo-3H-spiro[isobenzofuran-1,9′-xanthene]-5-carboxylic acid amido)-2-(2-(acetoxymethoxy)-2-oxoethoxy)phenyl)azanediyl) diacetate]
- Fmax/Fmin (fluorescence intensity of Ca2+-bound vs unbound probe) [1]: 10.8
- localization of fluorescence after staining (HEK 293T/Halo-RimZF-CAAX [2]): fluorescence localized on the cell membrane on which the HaloTag protein is expressed was observed
- Fmax/Fmin [3]: 4.7
- change in fluorescence intensity due to ionomycin stimulation (HEK 293T/Halo-RimZF-CAAX [4]): increased the fluorescence intensity
- Ca2+ signal change on electrical stimulation [5]: a Ca^2+ signal change corresponding to the stimulus was observed

Reference: US10884004B2, “Taggable fluorescent probe for calcium ion detection” (The University of Tokyo, priority 2016, dated 2021)
